Data as given in patent US8580811B2 (Ligand Pharmaceuticals Incorporated, priority 2005, dated 2013).
Like-named read-outs stand apart in the source and are kept apart here.

Molecular target: T1, human AR (Homo sapiens, UniProt P10275)
T1 construct: expressed in transfected cells; host or cells: COS-1 cells
T1 sequence (P10275 1-920): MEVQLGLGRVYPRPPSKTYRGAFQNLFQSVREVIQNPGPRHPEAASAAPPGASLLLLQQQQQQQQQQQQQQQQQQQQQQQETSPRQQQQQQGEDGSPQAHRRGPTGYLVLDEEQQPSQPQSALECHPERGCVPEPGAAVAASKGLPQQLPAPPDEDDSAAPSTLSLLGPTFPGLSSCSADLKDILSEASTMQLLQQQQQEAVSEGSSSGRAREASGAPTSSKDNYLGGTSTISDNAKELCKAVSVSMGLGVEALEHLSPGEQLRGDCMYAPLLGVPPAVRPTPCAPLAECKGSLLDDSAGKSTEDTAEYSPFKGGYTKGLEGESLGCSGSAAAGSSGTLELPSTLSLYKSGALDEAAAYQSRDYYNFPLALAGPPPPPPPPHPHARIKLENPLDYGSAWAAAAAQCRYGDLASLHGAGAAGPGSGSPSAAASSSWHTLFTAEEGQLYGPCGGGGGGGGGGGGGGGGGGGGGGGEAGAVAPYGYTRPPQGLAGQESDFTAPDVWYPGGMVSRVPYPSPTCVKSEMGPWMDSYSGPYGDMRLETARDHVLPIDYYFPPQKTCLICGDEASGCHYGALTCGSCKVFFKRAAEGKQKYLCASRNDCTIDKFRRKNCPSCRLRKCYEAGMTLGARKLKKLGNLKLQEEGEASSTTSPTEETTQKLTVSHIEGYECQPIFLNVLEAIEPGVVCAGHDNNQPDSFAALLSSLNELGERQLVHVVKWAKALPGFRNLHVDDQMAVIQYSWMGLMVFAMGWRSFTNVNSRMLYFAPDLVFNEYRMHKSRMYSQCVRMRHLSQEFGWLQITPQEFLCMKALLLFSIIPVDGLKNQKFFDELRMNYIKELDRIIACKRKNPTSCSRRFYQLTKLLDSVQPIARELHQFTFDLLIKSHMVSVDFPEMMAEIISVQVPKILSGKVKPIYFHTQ
Test: IR Binding Assay: whole cell competitive binding of test compounds against 3H-DHT in COS-1 cells transfected with pRShAR
In short: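 COS-1 cells transfected with pRShAR plus β-Gal reporter, serum-starved 24 h, then exposed to 1 nM ³H-DHT with compounds at 10^−10 to 10^−6 M for 3 h at 37 °C. Bound ³H-DHT counted in lysates, normalized to β-Gal. IC50 from log-logit plot; Ki via Cheng-Prusoff using Kd from Scatchard saturation analysis.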

SMILES	Ki [nM]	also measured
Cc1c(-c2ccncc2)n(CC(F)(F)F)c2ccc3[nH]c(=O)cc(Cl)c3c12 [Compound 254, 9-Chloro-1-methyl-2-(4-pyridyl)-3-(2,2,2-trifluoroethyl)-3,6-dihydro-pyrrolo[3,2-f]-quinolin-7-one]		Ki (competition with 1 nM 3H-DHT, transfected COS-1 cells, 3 h at 37° C., Cheng-Prusoff from IC50, read-out: Ki): > 10 nM
CC1c2c(ccc3[nH]c(=O)cc(Cl)c23)N(CC(F)(F)Cl)C1C (racemic) [Compound 138, (±)-9-Chloro-3-(2-chloro-2,2-difluoro-ethyl)-1,2-dimethyl-1,2,3,6-tetrahydro-pyrrolo[3,2-f]-quinolin-7-one]	< 5	
CCc1c(C)[nH]c2ccc3[nH]c(=O)cc(Cl)c3c12 [Compound 109, 9-Chloro-2-methyl-1-ethyl-3,6-dihydro-pyrrolo[3,2-f]quinolin-7-one]	> 10	
Cc1c(C)n(CCO)c2ccc3[nH]c(=O)cc(C(F)(F)F)c3c12 [Compound 240, 1,2-Dimethyl-3-(2-hydroxyethyl)-9-trifluoromethyl-3,6-dihydro-pyrrolo[3,2-f]quinolin-7-one]	> 10	
Cc1c(-c2cccc([N+](=O)[O-])c2)n(CC(F)(F)F)c2ccc3[nH]c(=O)cc(Cl)c3c12 [Compound 205, 9-Chloro-1-methyl-2-(3-nitrophenyl)-3-(2,2,2-trifluoroethyl)-3,6-dihydro-pyrrolo[3,2-f]quinolin-7-one]	5 to 10	
Cc1c(C)n(CCc2cccs2)c2ccc3[nH]c(=O)cc(Cl)c3c12 [Compound 189, 9-Chloro-1,2-dimethyl-3-(2-thien-2-yl-ethyl)-3,6-dihydro-pyrrolo[3,2-f]quinolin-7-one]	> 10	
Cc1c(C)n(CC(F)(F)Cl)c2ccc3[nH]c(=O)cc(Cl)c3c12 [Compound 212, 9-Chloro-3-(2-chloro-2,2-difluoroethyl)-1,2-dimethyl-3,6-dihydro-pyrrolo[3,2-f]quinolin-7-one]	< 5	
Cc1c(C)n(CC(F)(F)C(F)(F)C(F)(F)F)c2ccc3[nH]c(=O)cc(Cl)c3c12 [Compound 214, 9-Chloro-1,2-dimethyl-3-(2,2,3,3,4,4,4-heptafluorobutyl)-3,6-dihydro-pyrrolo[3,2-f]-quinolin-7-one]	> 10	
O=c1cc(Cl)c2c3c(ccc2[nH]1)N(CC(F)(F)F)C1CCCCC31 (racemic) [Compound 133, (±)-9-Chloro-1,2-tetramethylene-3-(2,2,2-trifluoro-ethyl)-1,2,3,6-tetrahydro-pyrrolo[3,2-f]quinolin-7-one]	< 5	
CC1c2c(ccc3[nH]c(=O)cc(Cl)c23)N(CC(F)(F)F)C1c1cccc(Br)c1 (racemic) [Compound 153, (±)-2-(3-Bromophenyl)-9-chloro-1-methyl-3-(2,2,2-trifluoroethyl)-1,2,3,6-tetrahydro-pyrrolo[3,2-f]quinolin-7-one]	> 10	
Cc1c(C)n(CC(O)C(F)(F)F)c2ccc3[nH]c(=O)cc(Cl)c3c12 (racemic) [Compound 279, rac-9-Chloro-1,2-dimethyl-3-(3,3,3-trifluoro-2-hydroxy-propyl)-3,6-dihydro-pyrrolo[3,2-f]-quinolin-7-one]		Ki (competition with 1 nM 3H-DHT, transfected COS-1 cells, 3 h at 37° C., Cheng-Prusoff from IC50): < 5 nM
CC1c2c(ccc3[nH]c(=O)cc(Cl)c23)N(CC(F)(F)F)C1c1ccc(O)cc1 (racemic) [Compound 155, (±)-9-Chloro-2-(4-hydroxyphenyl)-1-methyl-3-(2,2,2-trifluoroethyl)-1,2,3,6-tetrahydro-pyrrolo[3,2-f]quinolin-7-one]	> 10	
CCc1c(-c2cccs2)[nH]c2ccc3[nH]c(=O)cc(Cl)c3c12 [Compound 123, 9-Chloro-1-ethyl-2-thien-2-yl-3,6-dihydro-pyrrolo[3,2-f]quinolin-7-one]	5 to 10	
O=c1cc(Cl)c2c3c(ccc2[nH]1)N(CC(F)(F)F)[C@@H]1CCC[C@H]31 [Compound 162, (+)-9-Chloro-3-(2,2,2-trifluoroethyl)-1,2-trimethylene-1,2,3,6-tetrahydropyrrolo[3,2-f]quinolin-7-one]	< 5	
Cc1c(C)n(CC(F)F)c2ccc3[nH]c(=O)cc(Cl)c3c12 [Compound 191, 9-Chloro-3-(2,2-difluoroethyl)-1,2-dimethyl-3,6-dihydro-pyrrolo[3,2-f]quinolin-7-one]	< 5	
Cc1c(-c2cccc(F)c2)n(CC(F)(F)F)c2ccc3[nH]c(=O)cc(Cl)c3c12 [Compound 251, 9-Chloro-2-(3-fluorophenyl)-1-methyl-3-(2,2,2-trifluoroethyl)-3,6-dihydro-pyrrolo[3,2-f]-quinolin-7-one]	< 5	
Cc1c(C)n(CCO)c2ccc3[nH]c(=O)cc(Cl)c3c12 [Compound 190, 9-Chloro-3-(2-hydroxy-ethyl)-1,2-dimethyl-3,6-dihydro-pyrrolo[3,2-f]quinolin-7-one]	> 10	
CCc1c(C)c2c3c(C(F)(F)F)cc(=O)[nH]c3ccc2n1CC(F)(F)Cl [Compound 224, 3-(2-Chloro-2,2-difluoroethyl)-2-ethyl-1-methyl-9-trifluoromethyl-3,6-dihydro-pyrrolo[3,2-f]-quinolin-7-one]	< 5	
Cc1c(C(F)(F)F)n(CC(F)(F)F)c2ccc3[nH]c(=O)cc(Cl)c3c12 [Compound 229, 9-Chloro-1-methyl-3-(2,2,2-trifluoro-ethyl)-2-trifluoromethyl-3,6-dihydro-pyrrolo[3,2-f]-quinolin-7-one]	< 5	
Cc1c(C)n(CCCNCCO)c2ccc3[nH]c(=O)cc(C(F)(F)F)c3c12 [Compound 289, 1,2-Dimethyl-3-[3-(2-hydroxy-ethylamino)-propyl]-9-trifluoromethyl-3,6-dihydro-pyrrolo[3,2-f]quinolin-7-one]	> 10	
Cc1c(C(F)(F)F)n(CC(F)(F)C(F)(F)F)c2ccc3[nH]c(=O)cc(Cl)c3c12 [Compound 260, 9-Chloro-1-methyl-3-(2,2,3,3,3-pentafluoropropyl)-2-(trifluoromethyl)-3,6-dihydro-pyrrolo[3,2-f]quinolin-7-one]	> 10	
CC1c2c(ccc3[nH]c(=O)cc(Cl)c23)N(CC(F)(F)C(F)(F)F)C1C (racemic) [Compound 167, (±)-9-Chloro-1,2-dimethyl-3-(2,2,3,3,3-pentafluoropropyl)-1,2,3,6-tetrahydro-pyrrolo[3,2-f]-quinolin-7-one]	< 5	
CC1c2c(ccc3[nH]c(=O)cc(Cl)c23)N(CC(F)(F)F)C1c1ccccc1F (racemic) [Compound 156, (±)-9-Chloro-2-(2-fluorophenyl)-1-methyl-3-(2,2,2-trifluoroethyl)-1,2,3,6-tetrahydro-pyrrolo[3,2-f]quinolin-7-one]	< 5	
Cc1c(C=O)c2c3c(Cl)cc(=O)[nH]c3ccc2n1Cc1ccccc1 [Compound 188, 3-Benzyl-9-chloro-2-methyl-7-oxo-6,7-dihydro-3H-pyrrolo[3,2-f]quinoline-1-carbaldehyde]	< 5	
Cc1c(-c2cccnc2)n(CC(F)(F)C(F)(F)F)c2ccc3[nH]c(=O)cc(Cl)c3c12 [Compound 264, 9-Chloro-1-methyl-3-(2,2,3,3,3-pentafluoropropyl)-2-(3-pyridyl)-3,6-dihydro-pyrrolo[3,2-f]quinolin-7-one]	< 5	
CC1c2c(ccc3[nH]c(=O)cc(Cl)c23)N(CC(F)(F)F)C1c1cccs1 (racemic) [Compound 161, (±)-9-Chloro-1-methyl-2-(thien-2-yl)-3-(2,2,2-trifluoroethyl)-1,2,3,6-tetrahydro-pyrrolo[3,2-f]quinolin-7-one]	< 5	
CC(C)=Cn1c(C)c(C)c2c3c(C(F)(F)F)cc(=O)[nH]c3ccc21 [Compound 238, 1,2-Dimethyl-3-(2-methylprop-1-enyl)-9-trifluoromethyl-3,6-dihydro-pyrrolo[3,2-f]-quinolin-7-one]	< 5	
CCC1c2c(ccc3[nH]c(=O)cc(Cl)c23)N(CC(F)(F)F)C1c1ccccc1 (racemic) [Compound 160, (±)-9-Chloro-1-ethyl-2-phenyl-3-(2,2,2-trifluoroethyl)-1,2,3,6-tetrahydro-pyrrolo[3,2-f]-quinolin-7-one]	> 10	
Cc1c(-c2ccc(Cl)cc2)[nH]c2ccc3[nH]c(=O)cc(Cl)c3c12 [Compound 118, 9-Chloro-2-(4-chlorophenyl)-1-methyl-3,6-dihydro-pyrrolo[3,2-f]quinolin-7-one]	< 5	
CC1c2c(ccc3[nH]c(=O)cc(Cl)c23)N(CC(F)(F)C(F)(F)F)C1c1ccccc1 (racemic) [Compound 171, (±)-9-Chloro-1-methyl-3-(2,2,3,3,3-pentafluoropropyl)-2-phenyl-1,2,3,6-tetrahydro-pyrrolo[3,2-f]quinolin-7-one]	> 10	
